Values of other authors as cited in patent US20090053275A1, “Foam/spray producing compositions and dispencing system therefor” (priority 2000, published 2009).

SMILES: Oc1cc(Cl)ccc1Oc1ccc(Cl)cc1Cl [triclosan]
- water solubility: not water soluble
